Patent US10065948B2, “Histone deacetylase inhibitors and compositions and methods of use thereof” (CHDI Foundation, Inc., priority 2014, dated 2018)

Columns and labels:
[1] = biological target: Histone Deacetylase 4 (HDAC4) catalytic domain (Homo sapiens (Human), UniProt P56524); test: Biochemical HDAC inhibition assay, fluorogenic substrate Boc-Lys(Tfa)-AMC
Method: The potency of compounds is quantified by measuring the Histone Deacetylase 4 (HDAC4) catalytic domain enzymatic activity using the fluorogenic substrate, Boc-Lys(Tfa)-AMC. The substrate is deacetylated to Boc-Lys-AMC by HDAC4. Cleavage by trypsin results in the release of the fluorophore AMC from the deacetylated substrate. The fluorescence of the sample is directly related to the histone deacetylase activity in the sample.
Stocks of 60 μL aliquots of the 10 mM compound in DMSO are prepared and stored at −20° C. From one stock aliquot of each compound to be tested and the reference compound, a 16-point serial dilution is prepared according to Table 1 using a 125 μL 16-channel Matrix multi-channel pipette (Matrix Technologies Ltd).
2 μL (200×) of each diluted solution and each control (full activity: 100% DMSO alone or full inhibition 1 mM) is stamped into V-bottomed polypropylene 384-well compound plates using either the Bravo (384-well head from Agilent) or 12.5 μL 16-channel Matrix multi-channel pipette (Matrix Technologies Ltd). Each well with the 200× compound solution is diluted 1:20 by the addition of 38 μL assay buffer+DMSO (10.5% DMSO, 45 mM Tris-HCl, 123 mM NaCl, 2.4 mM KCl, and 0.9 mM MgCl2 at pH 8.0 and equilibrated to room temperature).
The HDAC4 catalytic domain enzyme is human catalytic domain HDAC4 protein (amino acids 648-1032) with a C-terminal 6× histidine tag, produced by BioFocus. A working solution of enzyme is prepared from a 500 μg/mL stock aliquot of HDAC4 catalytic domain (thawed on ice) diluted to 0.2 μg/mL with assay buffer (50 mM Tris-HCl, 137 mM NaCl, 2.7 mM KCl, and 1 mM MgCl2 at pH 8 and equilibrated to room temperature) just prior to the addition of the enzyme to the assay.
5× (50 μM) substrate is prepared just prior to the addition to the assay. A 1 mM substrate stock is made by diluting a 100 mM Boc-Lys(Tfa)-AMC in DMSO solution 1:100 by adding it drop-wise to assay buffer (equilibrated to room temperature) while vortexing at slow speed to prevent precipitation. The 5× substrate is prepared by diluting the 1 mM substrate solution 1:20 by adding it drop-wise to assay buffer (equilibrated to room temperature) while vortexing at slow speed to prevent precipitation.
3× (30 μM) Developer/Stop Solution is prepared just prior to addition to the plate by diluting a stock solution of 10 mM reference compound 1:333 in 25 mg/mL trypsin (PAA Laboratories Ltd.) equilibrated to room temperature.
5 μL of each solution of 1:20 diluted compound from above is transferred to a clear bottomed, black, 384-well assay plate using the Bravo or the Janus (384-well MDT head from Perkin Elmer). Using a 16-channel Matrix multi-channel pipette, 35 μL of the working solution of HDAC4 catalytic domain enzyme (0.2 μg/mL in assay buffer) is transferred to the assay plate. […] The assay plate is then shaken for two minutes on an orbital shaker at 900 rpm (rotations per minute). Next the plate is incubated for 15 minutes at 37° C. The reaction is stopped by adding 25 μL of 3× (30 μM) developer/stop solution to the assay plates using either the Bravo, Janus or a 16-channel Matrix multi-channel pipette. Assay plates are then shaken for 5 minutes on an orbital shaker at 1200 rpm. Next, the assay plates are incubated at 37° C. for 1 hour in a tissue culture incubator. Finally, the fluorescence is measured (Excitation: 355 nm, Emission: 460 nm) using PerkinElmer EnVision in top read mode.

[2] = system: cellular histone deacetylase enzymatic activity in Jurkat E6-1 cells; test: Inhibition of cellular HDAC activity, Boc-Lys(Tfa)-AMC substrate (Cell Lys-TFA); type: cell-based
Method: The potency of the compounds is quantified by measuring the cellular histone deacetylase enzymatic activity using the fluorogenic substrate, Boc-Lys(Tfa)-AMC. After penetration in Jurkat E6-1 cells, the substrate is deacetylated to Boc-Lys-AMC. After cell lysis and cleavage by trypsin, the fluorophore AMC is released from the deacetylated substrate only. The fluorescence of the sample is directly related to the histone deacetylase activity in the sample.
Jurkat E6.1 cells are cultured according to standard cell culture protocols in Jurkat E6.1 Growth Media (RPMI without phenol red, 10% FBS, 10 mM HEPES, and 1 mM Sodium Pyruvate). Jurkat E6.1 cells are counted using a Coulter Counter and resuspended in Jurkat E6.1 growth media at a concentration of 75,000 cells/35 μL. 35 μL or 75,000 cells is seeded into Greiner microtitre assay plates. The plates are then incubated at 37° C. and 5% CO2 while other assay components are being prepared.
Stocks of 70 μL aliquots of the 10 mM compound in DMSO are prepared and stored at −20° C. From one stock aliquot of each compound to be tested and the reference compound, a 16-point serial dilution is prepared according to Table 1 using a 125 μL 16-channel Matrix multi-channel pipette.
2 μL (200×) of each diluted solution and each control (full activity: 100% DMSO alone or full inhibition 1 mM) is stamped into V-bottom polypropylene 384-well compound plates using either the Bravo, Janus, or 12.5 μL 16-channel Matrix multi-channel pipette. Each well with the 200× compound solution is diluted 1:20 by the addition of 38 μL Jurkat assay buffer+DMSO (9.5% DMSO, RPMI without phenol red, 0.09% FBS, 9 mM Hepes, and 0.9 mM Sodium Pyruvate equilibrated to room temperature)
5× (500 μM) substrate is prepared just prior to the addition to the assay. The 5× substrate is prepared by diluting a 100 mM Boc-Lys(Tfa)-AMC in DMSO solution 1:200 by adding it drop-wise to Jurkat assay medium (RPMI without phenol red, 0.1% FBS, 10 mM Hepes, and 1 mM Sodium Pyruvate equilibrated to 37° C.) while vortexing at slow speed to prevent precipitation.
10 mL of 3× lysis buffer is prepared with 8.8 ml of 3× stock lysis buffer (50 mM Tris-HCl, pH 8.0, 137 mM NaCl, 2.7 mM KCl, 1 mM MgCl2, 1% Nonidet P40 Substitute equilibrated to room temperature) and 1.2 mL of 3 mg/mL Trypsin equilibrated to room temperature.
5 μL of each solution of 1:20 diluted compound from above is transferred to the Greiner microtitre assay plates with 75,000 cells/well using the Bravo. Cells are then incubated for 2 hours at 37° C. and 5% CO2. […] The cells are then incubated for 3 hours at 37° C. and 5% CO2. Next, 25 μL of 3× lysis buffer is added to each well using either the 125 μL 16 channel pipette or the Bravo. The assay plate is then incubated overnight (15-16 hours) at 37° C. and 5% CO2. The following day, the plates are shaken on an orbital shaker for 1 minute at 900 rpm. Finally the top read fluorescence (Excitation: 355 nm, Emission: 460 nm) is measured using PerkinElmer EnVision.

[3] = system: cellular histone deacetylase activity (Lys-Ac); test: Inhibition of cellular HDAC activity (Cell Lys-Ac); type: cell-based; conditions: Lys-Ac substrate
[4] = Homo sapiens, Jurkat E6.1, Lys-TFA substrate

Sequence of Histone Deacetylase 4 (HDAC4) catalytic domain (P56524 648-1032): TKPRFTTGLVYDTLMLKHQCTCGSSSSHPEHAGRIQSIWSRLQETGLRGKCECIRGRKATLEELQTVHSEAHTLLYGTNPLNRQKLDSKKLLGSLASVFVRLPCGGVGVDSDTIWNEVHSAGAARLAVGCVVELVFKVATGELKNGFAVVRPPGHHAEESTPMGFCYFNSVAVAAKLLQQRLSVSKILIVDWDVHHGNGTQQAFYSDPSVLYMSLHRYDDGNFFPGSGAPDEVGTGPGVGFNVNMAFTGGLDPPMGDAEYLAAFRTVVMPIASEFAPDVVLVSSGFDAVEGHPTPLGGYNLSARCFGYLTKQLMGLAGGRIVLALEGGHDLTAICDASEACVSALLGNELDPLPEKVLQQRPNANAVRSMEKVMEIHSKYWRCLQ

| IC50 [1] | IC50 ([2]; Lys-TFA substrate) | IC50 [3] | IC50 [2, 4] | SMILES |
| --- | --- | --- | --- | --- |
| 820 nM | 72 nM | > 50000 nM |  | Cc1c(F)cccc1C1(C(=O)NO)CCc2c(cnn2-c2ccccc2)C1 (single isomer, unassigned) [Example 31, E1-(abs)-5-(3-Fluoro-2-methylphenyl)-N-hydroxy-1-phenyl-4,5,6,7-tetrahydro-1H-indazole-5-carboxamide] |
| 17300 nM | 2900 nM | > 50000 nM |  | Cc1c(F)cccc1C1(C(=O)NO)CCc2c(cnn2-c2ccccc2)C1 (single isomer, unassigned) [Example 32, E2-(abs)-5-(3-fluoro-2-methylphenyl)-N-hydroxy-1-phenyl-4,5,6,7-tetrahydro-1H-indazole-5-carboxamide] |
| 480 nM | 120 nM | > 50000 nM |  | Cc1c(F)cccc1C1(C(=O)NO)Cc2nc(-c3ccccc3F)sc2C1 (single isomer, unassigned) [Example 61, E1-(abs)-5-(3-Fluoro-2-methylphenyl)-2-(2-fluorophenyl)-N-hydroxy-5,6-dihydro-4H-cyclopenta[d]thiazole-5-carboxamide] |
| 193 nM | 49 nM | > 50000 nM |  | Cc1c(F)cccc1C1(C(=O)NO)Cc2nc(-c3ccccc3F)sc2C1 (single isomer, unassigned) [Example 62, E2-(abs)-5-(3-fluoro-2-methylphenyl)-2-(2-fluorophenyl)-N-hydroxy-5,6-dihydro-4H-cyclopenta[d]thiazole-5-carboxamide] |
| 780 nM | 540 nM | > 50000 nM |  | Cc1cc(F)ccc1-c1nc2c(s1)CC(C(=O)NO)(c1cccc(F)c1C)C2 (single isomer, unassigned) [Example 74, E1-(abs)-5-(3-Fluoro-2-methylphenyl)-2-(4-fluoro-2-methylphenyl)-N-hydroxy-5,6-dihydro-4H-cyclopenta[d]thiazole-5-carboxamide] |
| 270 nM | 51 nM | > 50000 nM |  | Cc1cc(F)ccc1-c1nc2c(s1)CC(C(=O)NO)(c1cccc(F)c1C)C2 (single isomer, unassigned) [Example 75, E2-(abs)-5-(3-Fluoro-2-methylphenyl)-2-(4-fluoro-2-methylphenyl)-N-hydroxy-5,6-dihydro-4H-cyclopenta[d]thiazole-5-carboxamide] |
| 68 nM | 36 nM | > 50000 nM |  | Cc1c(F)cccc1C1(C(=O)NO)Cc2nc(-c3cnn(C)c3C)sc2C1 (single isomer, unassigned) [Example 76, E1-(abs)-2-(1,5-Dimethyl-1H-pyrazol-4-yl)-5-(3-fluoro-2-methylphenyl)-N-hydroxy-5,6-dihydro-4H-cyclopenta[d]thiazole-5-carboxamide] |
| 200 nM | 128 nM | > 50000 nM |  | Cc1c(F)cccc1C1(C(=O)NO)Cc2nc(-c3cnn(C)c3C)sc2C1 (single isomer, unassigned) [Example 77, E2-(abs)-2-(1,5-dimethyl-1H-pyrazol-4-yl)-5-(3-fluoro-2-methylphenyl)-N-hydroxy-5,6-dihydro-4H-cyclopenta[d]thiazole-5-carboxamide] |
| 480 nM |  | > 50000 nM | 1400 nM | Cc1c(F)cccc1C1(C(=O)NO)CCc2cn(CC(F)(F)F)nc2CC1 (single isomer, unassigned) [Example 84, E1-(abs)-6-(3-Fluoro-2-methylphenyl)-N-hydroxy-2-(2,2,2-trifluoroethyl)-2,4,5,6,7,8-hexahydrocyclohepta[c]pyrazole-6-carboxamide] |
| 790 nM | 1800 nM | > 50000 nM |  | Cc1c(F)cccc1C1(C(=O)NO)CCc2cn(CC(F)(F)F)nc2CC1 (single isomer, unassigned) [Example 85, E2-(abs)-6-(3-fluoro-2-methylphenyl)-N-hydroxy-2-(2,2,2-trifluoroethyl)-2,4,5,6,7,8-hexahydrocyclohepta[c]pyrazole-6-carboxamide] |
| 28 nM |  | > 50000 nM | 59 nM | Cc1c(F)cccc1[C@]1(C(=O)NO)Cc2cnn(-c3ccccc3)c2C1 [Example 1, (S)-5-(3-Fluoro-2-methylphenyl)-N-hydroxy-1-phenyl-1,4,5,6-tetrahydrocyclopenta[c]pyrazole-5-carboxamide] |
| 17 nM |  | > 50000 nM | 33 nM | Cc1c(F)cccc1[C@]1(C(=O)NO)Cc2cnn(-c3ccccc3F)c2C1 [Example 3, (S)-5-(3-Fluoro-2-methylphenyl)-1-(2-fluorophenyl)-N-hydroxy-1,4,5,6-tetrahydrocyclopenta[c]pyrazole-5-carboxamide] |
|  |  | > 50000 nM | > 50000 nM | O=C(NO)[C@@]1(c2ccccc2)CCc2ccccc21 [Example 88, E2-(abs)-N-hydroxy-1-phenyl-2,3-dihydro-1H-indene-1-carboxamide] |
|  |  | > 50000 nM | > 50000 nM | O=C(NO)C1(c2ccccc2)Cc2ccccc2C1 [Example 89, N-Hydroxy-2-phenyl-2,3-dihydro-1H-indene-2-carboxamide] |
|  |  | > 50000 nM | 15 nM | Cc1c(F)cccc1[C@]1(C(=O)NO)Cc2cnn(-c3ccc(F)cc3Cl)c2C1 [Example 90, (S)-1-(2-Chloro-4-fluorophenyl)-5-(3-fluoro-2-methylphenyl)-N-hydroxy-1,4,5,6-tetrahydrocyclopenta[c]pyrazole-5-carboxamide] |
